Assay results as given in PubChem BioAssay (NCI).
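1) Cells in 96-well plates. 2) Compound, 48 h, 5 concentrations. 3) Linear interpolation between surrounding doses. 4) Unreached endpoint = highest concentration. Here, GI50 denotes the concentration required for 50% inhibition of growth. Definition used: TGI = concentration required for complete inhibition of growth.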

Each compound was assayed on K-562 leukemia (assay: DTP human tumour cell line panel, 48 h).

| Structure (SMILES) | TGI [µM] | GI50 [µM] |
| --- | --- | --- |
| COc1cc(-c2nnc3n2NC=C(C(=O)O)S3)cc(OC)c1OC | > 63 |  |
| Cn1cc(S(=O)(=O)N2CCC3=Cc4c(cnn4-c4ccc(F)cc4)C[C@]3(C(=O)c3cc(C(F)(F)F)ccn3)C2)cn1 | > 100 | > 100 |
| C[P+](C)(C)c1ccccc1 | > 100 |  |
| O=C1c2ccccc2C(=O)N1C/C=N/NS(=O)(=O)c1ccc(Br)cc1 | > 100 |  |
| COc1cc(/C=C/C(=O)Oc2ccccc2)ccc1C(=O)O/C=C/c1ccccc1 | > 100 |  |
| CC(Cl)CN1c2ccccc2Sc2ccc(Cl)cc21 (configuration not stated) | > 10 |  |
| NC(=O)c1cn(Cc2ccccc2)c(=O)n1Cc1ccccc1 | > 100 |  |
| CCOC(=O)C(C)(c1c(C)[nH]c2ccccc12)c1c(C)[nH]c2ccccc12 | 42.4 |  |
| Cc1c(Cl)cccc1NC(=O)c1cccc([N+](=O)[O-])c1O | > 82.7 |  |
| CC1COS(=O)O1 (configuration not stated) | > 100 |  |
| CC1CCC(C(C)(C)c2ccccc2)C(=O)C1 (configuration not stated) | > 100 |  |
| O=C1CC2CCN(C(=O)c3ccccc3)CC2CCN1 (configuration not stated) | > 100 |  |
| N#CC(C#N)=C1CCCOc2c1ccc1ccccc21 | 43.5 | 20.4 |
| O=C1C=CC(=CC=C2C=CN(CCCCCCCCCCC(=O)NCCCCCCCCCCCC(=O)O)C=C2)C=C1 | > 100 |  |
| COc1cc2c3c(n(CCCN(C)CCO)c(=O)c2cc1OC)-c1cc2c(cc1C3=O)OCO2 | 54.7 | 0.439 |
| N#Cc1c(-c2ccco2)cc(-c2ccc(N)cc2)[nH]c1=O | > 100 |  |

| Structure (SMILES) | TGI [µM] | GI50 [µM] |
| --- | --- | --- |
| CNC(C)[C@H]1CCC2C3CC=C4C(=O)[C@@H](NC(=O)C=C(C)C)CC[C@]4(C)C3CC[C@@]21C (some centres not stated) | 2.19 | 0.478 |
| C1COCCSC2=C(SCCO1)SC(=C1SC3=C(SCCOCCOCCS3)S1)S2 | > 100 |  |
| COc1cc(/C=N\O[Si](C)(C)C(C)(C)C)ccc1O[Si](C)(C)C(C)(C)C | > 100 |  |
| CC12CCC(=O)N1c1cccnc1N2 (configuration not stated) | > 100 |  |
| COc1cc2c(cc1OC)C1Cc3cc(OC)c(OC)cc3N1CC2 (configuration not stated) | > 100 |  |
| NCCCOc1cc(Cl)ccc1NC(=O)c1cc2ccccc2cc1OCCCN | 4.12 | 1.72 |
| C=C1C(=O)OC2C1CC(OC(C)=O)/C(C)=C/CCC1(C)OC21 (configuration not stated) | > 100 |  |
| COc1cc(/C=C/C(=O)C(C(=O)/C=C/c2ccc(OC(=O)CCNC34CC5CC(CC(C5)C3)C4)c(OC)c2)C(=O)CCNC23CC4CC(CC(C4)C2)C3)ccc1OC(=O)CCNC12CC3CC(CC(C3)C1)C2 (configuration not stated) | 4.97 | 1.99 |
| O=C1C2[C@@H](C(=O)N1c1ccc(Br)cc1)C13C(=CC2([N+](=O)[O-])[C@@H]2C(=O)N(c4ccc(Br)cc4)C(=O)[C@@H]21)c1ccccc1N3c1ccccc1 (some centres not stated) | > 100 |  |
| O=C1/C(=C/N2N=C(c3ccc4ccccc4c3)CC2c2ccccc2O)SC(=S)N1c1cccnc1 (configuration not stated) | > 100 | 0.341 |
| CCOc1ccc(N=Cc2c3ccccc3nc3ccccc23)cc1 | > 100 |  |
| Nc1ccc(C2=N/C(=C\c3cccc(N)c3)C(=O)O2)cc1 | > 100 |  |
| CC(=O)[CH-]C(=O)c1ccccc1.CC(=O)[CH-]C(=O)c1ccccc1.O=S(=O)([O-])c1cc([O-])c2c([O-])cc(S(=O)(=O)[O-])cc2c1.[Na+].[Ti+4] | > 100 | > 100 |
| NCCN.O=C([O-])[O-].O=C([O-])[O-].[Co+3].[K+] | > 100 | > 100 |
| C1=NC(N(Cc2ccccc2)Cc2ccccc2)N(Cc2ccccc2)N1 (configuration not stated) | 43.9 |  |
| NC(=O)CNc1ccc([As]=[As]c2ccc(NCC(N)=O)cc2)cc1 (configuration not stated) | > 100 | 3.47 |

Each compound was assayed on SK-MEL-2 melanoma (assay: DTP human tumour cell line panel, 48 h).

| Structure (SMILES) | TGI [µM] | GI50 [µM] |
| --- | --- | --- |
| CCc1cccc(C)c1NC(=O)CC1C(=O)Nc2ccccc2S1=O (configuration not stated) | > 100 |  |
| O=C1c2ccc3c4ccccc4n(-c4ccccc4)c3c2C(=O)N1c1ccc(Cl)cc1 | > 100 |  |
| Cc1ccc2c(c1-c1ccccc1)C(=O)OC2 | > 100 |  |
| CCC[CH2][Sn]1([CH2]CCC)[O]CC(COc2c(Cl)cc(Cl)cc2Cl)[O]1 (configuration not stated) | 1.91 | 0.58 |
| COc1cc(-c2nnc3n2NC=C(C(=O)O)S3)cc(OC)c1OC | > 100 |  |
| Cn1cc(S(=O)(=O)N2CCC3=Cc4c(cnn4-c4ccc(F)cc4)C[C@]3(C(=O)c3cc(C(F)(F)F)ccn3)C2)cn1 | > 100 | 88.2 |
| C[P+](C)(C)c1ccccc1 | > 100 |  |
| O=C1c2ccccc2C(=O)N1C/C=N/NS(=O)(=O)c1ccc(Br)cc1 | > 100 |  |
| COc1cc(/C=C/C(=O)Oc2ccccc2)ccc1C(=O)O/C=C/c1ccccc1 | > 100 |  |
| CC(Cl)CN1c2ccccc2Sc2ccc(Cl)cc21 (configuration not stated) | > 10 |  |
| NC(=O)c1cn(Cc2ccccc2)c(=O)n1Cc1ccccc1 | > 100 |  |
| CCOC(=O)C(C)(c1c(C)[nH]c2ccccc12)c1c(C)[nH]c2ccccc12 | 38.4 |  |
| Cc1c(Cl)cccc1NC(=O)c1cccc([N+](=O)[O-])c1O | 36.9 |  |
| CC1COS(=O)O1 (configuration not stated) | > 100 |  |
| CC1CCC(C(C)(C)c2ccccc2)C(=O)C1 (configuration not stated) | > 100 |  |
| COc1ccc(/C=C/c2cnccn2)cc1OC | > 10 |  |
| O=C1CC2CCN(C(=O)c3ccccc3)CC2CCN1 (configuration not stated) | 60.2 |  |

| Structure (SMILES) | TGI [µM] | GI50 [µM] |
| --- | --- | --- |
| COc1cc2c3c(n(CCCN(C)CCO)c(=O)c2cc1OC)-c1cc2c(cc1C3=O)OCO2 | > 100 | > 100 |
| CNC(C)[C@H]1CCC2C3CC=C4C(=O)[C@@H](NC(=O)C=C(C)C)CC[C@]4(C)C3CC[C@@]21C (some centres not stated) | 6.9 | 2.74 |
| C1COCCSC2=C(SCCO1)SC(=C1SC3=C(SCCOCCOCCS3)S1)S2 | > 100 |  |
| COc1cc(C(=O)O[C@H](C(N)=O)[C@]2(C)CO2)c2cccc(C)c2c1 | 0.0478 | < 0.01 |
| COc1cc(/C=N\O[Si](C)(C)C(C)(C)C)ccc1O[Si](C)(C)C(C)(C)C | > 100 |  |
| CC12CCC(=O)N1c1cccnc1N2 (configuration not stated) | > 100 |  |
| COc1cc2c(cc1OC)C1Cc3cc(OC)c(OC)cc3N1CC2 (configuration not stated) | > 100 |  |
| NCCCOc1cc(Cl)ccc1NC(=O)c1cc2ccccc2cc1OCCCN | 3.19 | 1.58 |
| C=C1C(=O)OC2C1CC(OC(C)=O)/C(C)=C/CCC1(C)OC21 (configuration not stated) | > 100 |  |
| COc1cc(/C=C/C(=O)C(C(=O)/C=C/c2ccc(OC(=O)CCNC34CC5CC(CC(C5)C3)C4)c(OC)c2)C(=O)CCNC23CC4CC(CC(C4)C2)C3)ccc1OC(=O)CCNC12CC3CC(CC(C3)C1)C2 (configuration not stated) | > 100 | 3.53 |
| O=C1C2[C@@H](C(=O)N1c1ccc(Br)cc1)C13C(=CC2([N+](=O)[O-])[C@@H]2C(=O)N(c4ccc(Br)cc4)C(=O)[C@@H]21)c1ccccc1N3c1ccccc1 (some centres not stated) | > 100 |  |
| CCOC(=O)C1=C(Nc2ccc(Br)cc2)OCC1=O | > 100 |  |
| CCOc1ccc(N=Cc2c3ccccc3nc3ccccc23)cc1 | > 100 |  |
| Nc1ccc(C2=N/C(=C\c3cccc(N)c3)C(=O)O2)cc1 | > 100 |  |
| CC(=O)[CH-]C(=O)c1ccccc1.CC(=O)[CH-]C(=O)c1ccccc1.O=S(=O)([O-])c1cc([O-])c2c([O-])cc(S(=O)(=O)[O-])cc2c1.[Na+].[Ti+4] | > 100 | > 100 |
| NCCN.O=C([O-])[O-].O=C([O-])[O-].[Co+3].[K+] | > 100 | > 100 |
| C1=NC(N(Cc2ccccc2)Cc2ccccc2)N(Cc2ccccc2)N1 (configuration not stated) | 31.8 |  |

What follows are compounds tested on HOP-92 NSCLC (assay: DTP human tumour cell line panel, 48 h).

| Structure (SMILES) | TGI [µM] | GI50 [µM] |
| --- | --- | --- |
| CCc1cccc(C)c1NC(=O)CC1C(=O)Nc2ccccc2S1=O (configuration not stated) | > 100 |  |
| Cc1ccc(N2C(=O)N(c3ccc(C)cc3)C3(SC=NN3C)C2=O)cc1 (configuration not stated) | > 100 |  |
| O=C1c2ccc3c4ccccc4n(-c4ccccc4)c3c2C(=O)N1c1ccc(Cl)cc1 | 75 |  |
| CCC[CH2][Sn]1([CH2]CCC)[O]CC(COc2c(Cl)cc(Cl)cc2Cl)[O]1 (configuration not stated) | 3.06 | 1.55 |
| NC(CCc1ncc(C(=O)O)s1)C(=O)O (configuration not stated) | > 100 |  |
| COc1cc(-c2nnc3n2NC=C(C(=O)O)S3)cc(OC)c1OC | > 100 |  |
| Cn1cc(S(=O)(=O)N2CCC3=Cc4c(cnn4-c4ccc(F)cc4)C[C@]3(C(=O)c3cc(C(F)(F)F)ccn3)C2)cn1 | > 100 | 6.57 |
| C[P+](C)(C)c1ccccc1 | > 100 |  |
| O=C1c2ccccc2C(=O)N1C/C=N/NS(=O)(=O)c1ccc(Br)cc1 | > 100 |  |
| COc1cc(/C=C/C(=O)Oc2ccccc2)ccc1C(=O)O/C=C/c1ccccc1 | > 100 |  |
| CC(Cl)CN1c2ccccc2Sc2ccc(Cl)cc21 (configuration not stated) | > 10 |  |
| NC(=O)c1cn(Cc2ccccc2)c(=O)n1Cc1ccccc1 | > 100 |  |
| Cc1c(Cl)cccc1NC(=O)c1cccc([N+](=O)[O-])c1O | 7.88 |  |
| CC1COS(=O)O1 (configuration not stated) | > 100 |  |
| CC1CCC(C(C)(C)c2ccccc2)C(=O)C1 (configuration not stated) | > 100 |  |
